Usually Papp A→B stands for how fast a substance crosses the layer from the apical side. Low values mean slow passage, high ones fast passage. One may read the Papp B→A as how fast a substance crosses the layer from the basolateral side. As usually defined, the efflux ratio is a quotient of directional permeabilities that is used to spot active efflux. A word on the IC50: it is the concentration needed to halve the response being measured. Low values mean higher potency, high ones lower potency. Usually half-life stands for the time needed for the level to fall by half in the phase considered. Read a high half-life as slow loss.

Values joined by “and” are separate entries in the source; they are usually repeats but may differ in a detail not shown here. Identical values can stand only once. Like-named read-outs stand apart in the source and are kept apart here. Bounds are passed on as bounds.

The nature of data set [1]: Stability in simulated gastric fluid. The conditions noted are these: for % RD of dioscin depletion / % RD of diosgenin depletion: RD = relative difference; for Degradation (depletion) in SGF: SGF pH 1.2, end of incubation (b9 prints 3-hour incubation). In kind it is in vitro ADME.
A short description of data set [2]: Stability in simulated intestinal fluid. In kind it is in vitro ADME. The conditions noted are these: for % RD of dioscin depletion / % RD of diosgenin depletion: RD = relative difference.
A short description of another data set: in vitro. In kind it is in vitro ADME, human. The conditions noted are these: human, Caco-2.
The subject of another data set is Caco-2 cell monolayers. Description: in vitro. In kind it is in vitro ADME, human. The following applies: for % Transport Absorptive direction (A–B) / % Transport Secretory direction (A–B): Caco-2 monolayers, 1% HPβCD, 2 h; for Intestinal permeability across Caco-2 monolayers (rating): relative to atenolol and propranolol. For orientation: Passage across Caco-2 layers is used to estimate intestinal permeability.

Data set [3] is described as follows: Phase I metabolic stability in human liver microsomes. It counts as in vitro ADME. The following applies: pooled human liver microsomes; for Stability in HLM (Phase I): up to 180 min, words. (In general: Liver microsomes are vesicles of endoplasmic reticulum, rich in cytochrome P450 enzymes.)
A short description of data set [4]: Phase II metabolic stability in S9 fractions. In kind it is in vitro ADME, human.
Data set [5] deals with T1, CYP2D6 (Homo sapiens, UniProt P10635).
T1 sequence (P10635 whole entry): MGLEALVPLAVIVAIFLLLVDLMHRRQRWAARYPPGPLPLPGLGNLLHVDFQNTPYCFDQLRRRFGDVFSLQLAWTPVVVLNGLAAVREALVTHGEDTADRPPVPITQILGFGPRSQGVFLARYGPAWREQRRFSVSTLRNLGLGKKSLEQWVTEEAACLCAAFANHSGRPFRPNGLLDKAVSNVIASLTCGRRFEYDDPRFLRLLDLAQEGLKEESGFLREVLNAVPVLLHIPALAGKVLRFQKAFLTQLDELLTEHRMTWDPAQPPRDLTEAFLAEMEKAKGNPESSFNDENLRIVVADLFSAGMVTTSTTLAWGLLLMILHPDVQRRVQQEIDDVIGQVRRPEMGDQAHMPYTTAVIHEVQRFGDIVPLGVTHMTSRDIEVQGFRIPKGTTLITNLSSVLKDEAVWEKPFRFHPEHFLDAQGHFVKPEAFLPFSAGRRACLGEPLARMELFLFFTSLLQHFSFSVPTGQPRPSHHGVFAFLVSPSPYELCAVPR
The conditions of data set [6]: rat, cited from earlier work.
Data set [7] addresses T1, CYP2D6. The data set is described as follows: biochemical.
The target of another data set is CYP3A4 (Homo sapiens, UniProt P08684). Description: Inhibition of cytochrome P450 3A4.
Chain of CYP3A4 (P08684 whole entry): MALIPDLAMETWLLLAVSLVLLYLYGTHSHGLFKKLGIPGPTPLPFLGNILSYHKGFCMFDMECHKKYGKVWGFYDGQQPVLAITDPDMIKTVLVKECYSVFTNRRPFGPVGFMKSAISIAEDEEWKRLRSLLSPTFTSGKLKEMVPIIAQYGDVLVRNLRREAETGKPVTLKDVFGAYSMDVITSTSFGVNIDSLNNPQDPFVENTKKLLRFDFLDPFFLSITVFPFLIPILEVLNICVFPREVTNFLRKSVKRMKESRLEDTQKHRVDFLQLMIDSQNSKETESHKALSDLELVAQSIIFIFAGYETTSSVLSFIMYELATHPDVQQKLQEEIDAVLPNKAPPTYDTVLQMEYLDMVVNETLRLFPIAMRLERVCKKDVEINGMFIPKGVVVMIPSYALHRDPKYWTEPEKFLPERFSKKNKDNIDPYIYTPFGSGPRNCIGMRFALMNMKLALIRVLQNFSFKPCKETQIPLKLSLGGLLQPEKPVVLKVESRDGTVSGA
Data set [8] addresses T2, CYP1A2 (Homo sapiens, UniProt P05177).
T2 sequence (P05177 1-516): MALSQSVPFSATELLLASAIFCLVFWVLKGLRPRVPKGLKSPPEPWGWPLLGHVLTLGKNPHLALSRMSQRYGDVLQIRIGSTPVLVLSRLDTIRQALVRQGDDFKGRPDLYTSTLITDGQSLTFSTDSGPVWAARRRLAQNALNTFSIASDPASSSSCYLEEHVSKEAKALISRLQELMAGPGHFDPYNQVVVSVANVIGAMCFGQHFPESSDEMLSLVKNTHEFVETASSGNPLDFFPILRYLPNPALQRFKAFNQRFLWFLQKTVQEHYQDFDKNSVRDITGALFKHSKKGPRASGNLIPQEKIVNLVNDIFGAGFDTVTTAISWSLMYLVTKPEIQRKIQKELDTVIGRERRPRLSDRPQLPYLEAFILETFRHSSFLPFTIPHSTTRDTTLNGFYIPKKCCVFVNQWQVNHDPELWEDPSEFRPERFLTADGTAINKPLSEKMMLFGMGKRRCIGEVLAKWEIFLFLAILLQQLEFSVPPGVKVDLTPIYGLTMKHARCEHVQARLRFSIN
Description: Inhibition of cytochrome P450 1A2.

The target in data set [9] is T3, CYP2C19 (Homo sapiens, UniProt P33261). The data set is described as follows: Inhibition of cytochrome P450 2C19. The conditions noted are these: words; table prints 2C19.
T3 sequence (P33261 whole entry): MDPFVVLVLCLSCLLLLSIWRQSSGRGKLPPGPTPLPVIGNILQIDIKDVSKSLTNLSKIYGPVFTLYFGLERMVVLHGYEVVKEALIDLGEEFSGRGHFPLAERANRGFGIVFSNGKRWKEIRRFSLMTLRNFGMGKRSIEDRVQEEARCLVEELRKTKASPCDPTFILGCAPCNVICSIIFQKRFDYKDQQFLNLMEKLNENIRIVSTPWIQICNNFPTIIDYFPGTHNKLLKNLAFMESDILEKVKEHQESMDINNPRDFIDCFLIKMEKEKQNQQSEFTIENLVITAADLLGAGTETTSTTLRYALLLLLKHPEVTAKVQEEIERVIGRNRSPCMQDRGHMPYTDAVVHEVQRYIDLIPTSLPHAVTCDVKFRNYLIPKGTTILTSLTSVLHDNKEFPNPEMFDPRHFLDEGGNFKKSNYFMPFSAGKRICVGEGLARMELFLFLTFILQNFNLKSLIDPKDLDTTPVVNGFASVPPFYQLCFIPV
In data set [10] the target is T3, CYP2C19.
Data set [11] has as its target T2, CYP1A2.
The conditions of data set [12]: cited from earlier work.
Where [13] appears, read: IC50 3A4, cDNA baculovirus-expressed enzyme, fluorescence substrate.
Setting [14] is: IC50 CYP3A4, text, catalytic activity of CYP3A4.

Regarding `C[C@@H]1CC[C@@]2(OC1)O[C@H]1C[C@H]3[C@@H]4CC=C5C[C@@H](O[C@@H]6O[C@H](CO)[C@@H](O[C@@H]7O[C@@H](C)[C@H](O)[C@@H](O)[C@H]7O)[C@H](O)[C@H]6O[C@@H]6O[C@@H](C)[C@H](O)[C@@H](O)[C@H]6O)CC[C@]5(C)[C@H]4CC[C@]3(C)[C@H]1[C@@H]2C` [Dioscin, dioscin], the “% RD of dioscin depletion” value in [1] (SGF pH 1.2, 30 min) is 16.7%; in [1] (SGF pH 1.2, 60 min) it was 23.6%; in data set [1] (SGF pH 1.2, 120 min), 28.3%; in [2] (SIF pH 6.8, 60 min) it was 4.3%; in data set [2] (SIF pH 6.8, 120 min) it was 9.9%; in data set [2] (SIF pH 6.8, 180 min) it was 11.6%. For the same compound, in data set [1], the “Degradation (depletion) in SGF” value is on record as 28.3%. The “Amount of dioscin in SGF” value is 45.0 ± 4.0 µg/mL in data set [1] (SGF pH 1.2, incubation 0 min); 37.5 ± 1.2 µg/mL in data set [1] (SGF pH 1.2, incubation 30 min); 34.4 ± 1.1 µg/mL in [1] (SGF pH 1.2, incubation 60 min); 32.3 ± 1.0 µg/mL in data set [1] (SGF pH 1.2, incubation 120 min). For the same compound, the “Dioscin still detected after incubation in SGF” value in data set [1] (after 3-hour incubation in SGF as printed) was 71.7%. For the same compound, the “Amount of dioscin in SIF” value in data set [2] (SIF pH 6.8, incubation 0 min) was 41.1 ± 0.8 µg/mL; in data set [2] (SIF pH 6.8, incubation 60 min), 39.3 ± 1.0 µg/mL; in data set [2] (SIF pH 6.8, incubation 120 min), 37.0 ± 1.3 µg/mL; in data set [2] (SIF pH 6.8, incubation 180 min), 36.3 ± 1.1 µg/mL. For the same compound, the apical-to-basolateral permeability (Papp A→B) at 2 h in the data set “in vitro” stood at 150 ± 10 nm/s. The apparent permeability from basolateral to apical (Papp B→A) at 2 h in the data set “in vitro” is 200 ± 30 nm/s. The efflux ratio at 120 min in “in vitro” came to 1.3. Moreover, the “Efflux across Caco-2 monolayer” value in the data set on Caco-2 cell monolayers (Caco-2, words) is “no significant efflux”. Further, the “% Transport Absorptive direction (A–B)” value in the data set with Caco-2 cell monolayers was 7.5% and 7.5 ± 0.8%. Besides, in the data set with Caco-2 cell monolayers, the “% Transport Secretory direction (A–B)” value was 11% and 11 ± 1%. The “Intestinal permeability across Caco-2 monolayers (rating)” value with Caco-2 cell monolayers is reported as “moderate”. Also, in data set [3] (dioscin 50 μM), the “Compound detected after incubation in HLM” value is listed as “more than 50%”. The “Stability in HLM (Phase I)” value in data set [3] is on record as “relatively stable”. Also, the “Compound detected after incubation in S9 fractions” value in data set [4] (S9 fractions, dioscin 50 μM) is “more than 50%”. The “Stability in S9 fraction (Phase II)” value in data set [4] (S9 fractions, words) is “relatively stable”. Moreover, the “Effect on CYP 2D6 (other CYP enzymes)” value at CYP2D6 [5] (words) is on record as “not affected”. Besides, in data set [6] (oral), the “Half-life after oral administration” value was 1540 min. In addition, the Oral bioavailability result in [6] is “low oral bioavailability”. In addition, the 50% inhibitory concentration (IC50) is above 50 µM against CYP2D6 [7], 33 ± 4 µM against CYP3A4 (setting [13]), 33.4 µM on CYP3A4 (setting [14]) and above 50 µM on CYP1A2 [8]. Moreover, the “Effect on CYP 1A2 (other CYP enzymes)” value at CYP1A2 [8] (words) is given as “not affected”. For the same compound, the “Effect on CYP 2C9 as printed in text (other CYP enzymes)” value at CYP2C19 [9] is on record as “not affected”.

Take `C[C@@H]1CC[C@@]2(OC1)O[C@H]1C[C@H]3[C@@H]4CC=C5C[C@@H](O)CC[C@]5(C)[C@H]4CC[C@]3(C)[C@H]1[C@@H]2C` [Diosgenin, diosgenin]: the “% RD of diosgenin depletion” value is 3.62% in data set [1] (SGF pH 1.2, 30 min); 8.31% in data set [1] (SGF pH 1.2, 60 min); 8.59% in [1] (SGF pH 1.2, 120 min); 1.28% in data set [2] (SIF pH 6.8, 60 min); 4.21% in data set [2] (SIF pH 6.8, 120 min); 4.80% in [2] (SIF pH 6.8, 180 min). In data set [1], the “Degradation (depletion) in SGF” value is < 10% and 8.5%. For the same compound, the “Amount of diosgenin in SGF” value in data set [1] (SGF pH 1.2, incubation 0 min) is 52.4 ± 0.9 µg/mL; in [1] (SGF pH 1.2, incubation 30 min), 50.5 ± 0.9 µg/mL; in data set [1] (SGF pH 1.2, incubation 60 min) it was 48.0 ± 1.9 µg/mL; in data set [1] (SGF pH 1.2, incubation 120 min) it was 47.9 ± 1.1 µg/mL. Besides, in [2] (SIF pH 6.8, after 3 hours of incubation), the “Degradation (disappearance) in SIF” value is < 10% and 4.8%. The “Amount of diosgenin in SIF” value is 57.0 ± 1.0 µg/mL in data set [2] (SIF pH 6.8, incubation 0 min); 56.2 ± 1.9 µg/mL in [2] (SIF pH 6.8, incubation 60 min); 54.6 ± 2.0 µg/mL in [2] (SIF pH 6.8, incubation 120 min); 54.2 ± 3.2 µg/mL in [2] (SIF pH 6.8, incubation 180 min). The same compound returned a Papp A→B at 2 h in “in vitro” of 96 ± 7 nm/s. The compound also came in with a Papp B→A at 2 h in the data set “in vitro” of 480 ± 40 nm/s. Also, the efflux ratio at 120 min in the data set “in vitro” amounted to 5. Moreover, the “% Transport Absorptive direction (A–B)” value in the data set on Caco-2 cell monolayers is 3.8% and 3.8 ± 0.8%. In addition, the “% Transport Secretory direction (A–B)” value in the data set with Caco-2 cell monolayers is 21% and 21 ± 1%. Also, the “Intestinal permeability across Caco-2 monolayers (rating)” value in the data set with Caco-2 cell monolayers is reported as “moderate”. Moreover, the “Diosgenin levels in apical or basolateral side” value in the data set on Caco-2 cell monolayers (transport buffer (HBSS) without HPβCD, after 2-hour incubation) is “no diosgenin levels were detected”. In [3], the “Stability in HLM (Phase I)” value is “stable”. Besides, in [4] (S9 fraction, diosgenin 100 μM), the “Intrinsic clearance in S9 fraction” value came out at 0.42 L/h/kg. In [4] (human, s9), this compound returned a half-life at 100 μM of 11.3 min. Further, the “Effect on CYP 2D6 (other CYP enzymes)” value at CYP2D6 [5] was “not affected”. Besides, the “Effect on CYP 2C9 as printed in text (other CYP enzymes)” value at CYP2C19 [10] is “not affected”. In addition, on CYP1A2 [11], the “Effect on CYP 1A2 (other CYP enzymes)” value is “not affected”. Moreover, the Aqueous solubility entry in data set [12] is reported as “poor aqueous solubility”. Moreover, the IC50 at CYP2D6 [7] is above 50 µM; on CYP3A4 (setting [13]), 17 ± 4 µM; against CYP3A4 (setting [14]) it was 21.7 µM; on CYP1A2 [8], above 50 µM.

As for lucifer yellow [Ly, reference compound], the “Papp of Ly (monolayer integrity marker)” value in the data set with Caco-2 cell monolayers (Caco-2) is 2.0 ± 0.5 × 10^−6 cm/s.

The values are drawn from paper PMC5592720 (Planta medica, 2013).
